Tested on: cornea (capsaicin-induced blinking)
Assay type: in vivo, Sprague-Dawley rats
Settings: for reduction of blink rate elicited by capsaicin: topical ocular dosing in 10% cyclodextrin vehicle 5 min before capsaicin (5 μL of 0.0005%), seven week old Sprague-Dawley rats, blinks counted for one minute
Source text: A capsaicin blink test was used to determine the pharmacological effect of two fatty acid amides, oleamide and anandamide. The test measured the pain response of the cornea by the number of times the animal blinked after the application of capsaicin.
Lyophilized anandamide was resuspended in an aqueous 10% cyclodextrin solution that was buffered with an aliquot of 10× phosphate buffered saline (PBS) (Laine et. al., 2001, Pharmaceutical Research. 18:494-499). The test article, either cyclodextrin vehicle or fatty acid amide (FAA), was dosed to both eyes of seven week old Sprague-Dawley rats (n=8, per group) five minutes prior to the application of capsaicin. Blinks were counted after the application of anandamide. Animals were dosed with 5 μL of vehicle in OS eye. After a 5-second period, blinks were counted for one minute. Capsaicin (5 μL of 0.0005%) was dosed in the OD eye. Blinks were counted in the same manner as the OS eye.

Compound	solubility in the 10% cyclodextrin vehicle (rat, in vivo)	reduction of blink rate elicited by capsaicin [%]	blinking after test article alone (before capsaicin application) (rat, in vivo)
CCCCCCCC/C=C\CCCCCCCC(N)=O [Oleamide, oleamide]	only partial solubility	20	
CCCCC/C=C\C/C=C\C/C=C\C/C=C\CCCC(=O)NCCO [anandamide]		50	rapid blinking for approximately one minute, followed by normal rates of blinking

Reference: patent US8207226B1, “Use of FAAH antagonists for treating dry eye and ocular pain” (Alcon Research, Ltd., priority 2008, dated 2012)
